Read-outs that look alike come from different tables or passages of the source. One block for each compound: values may come before it.
Tests used:
SH-SY5Y cells [1] = assay: In vitro model of mitochondrial dysfunction (MPP+); assay type: cell-based, human; details: MPP+ 30, 125, 500 μM for 24 h, then 1 μM for 30 min
Experimental: SH-SY5Y cells were seeded into 6-well plates (Corning Costar, no. 3516) at a density of 12,000 cells/well overnight. Cells were maintained at 37 °C in a humidified atmosphere of 5% CO2. To model mitochondrial dysfunction, undifferentiated and differentiated SH-SY5Y cells were incubated with 30, 125, and 500 μM 1-methyl-4-phenylpyridinium (MPP^+; Neurotoxin agent, Cayman, no. 16958) in the medium for 24 h. The control groups for undifferentiated and differentiated SH-SY5Y cells were treated with the same medium without MPP^+. The cells were then washed with 10% FBS/HBSS. After washing, cells were incubated with 1 μM of ALS04, MitoTracker Deep Red, and NucBlue for 30 min. The cells were imaged using BioTek Cytation 5. The fluorescent intensity of each cell was measured using ImageJ.

SH-SY5Y cells [2] = assay: Subcellular localization (colocalization with LysoTracker/MitoTracker); assay type: cell-based, human; details: 1 μM, 30 min, 37 °C
Experimental: Human neuroblastoma SH-SY5Y cells [American Type Culture Collection (ATCC), Manassas, VA, USA] were cultured in a 1:1 mixture of Eagle’s minimum essential medium (EMEM; no. 30-2003, ATCC, Manassas, VA, USA) and F12K with 10% FBS and 1% penicillin-streptomycin solution. Cells were grown in a humidified atmosphere of 5% CO2 at 37 °C. The medium was replaced every 3 to 4 d, and cells were subcultured using trypsin–EDTA when 70% to 80% confluent. All media and supplements were purchased from Gibco (Gaithersburg, MD, USA). To optimize the imaging condition in this study, cells were incubated at 37 °C for 10 to 30 min in the presence of 0.1 to 1 μM of ALS04 and ALS05. After washing, the cells were imaged using BioTek Cytation 5. Fluorescence intensity was quantified using the threshold analysis method implemented in the ImageJ software. […] The cells were then washed and stained with NucBlue (2 drops/ml, Live ReadyProbes Reagent, Hoechst 33342, Invitrogen no. R37605), Lysotracker Yellow (5 μM, Invitrogen, no. L12491), and MitoTracker Deep Red (0.5 μM) (Invitrogen, no. M22426) to stain lysosome and mitochondria for 30 min as per the manufacturer’s instruction. […] Mander’s colocalization coefficients were then determined using the Costes method to choose threshold values on ImageJ [24].

CD-1 mice = assay: Biodistribution and clearance by NIR imaging; assay type: in vivo; details: 4 h post-injection
Experimental: (§1) Six-week-old CD-1 mice were used to quantify the blood clearance rate and urinary excretion. Mice were injected with 25 nmol of ALS04 or ALS05 in saline containing 2.5% PEG400 (polyethylene glycol, molecular weight 400) and 5% BSA via intravenous injection under isoflurane anesthesia, and blood was collected in heparinized capillary tubes (Fisher Scientific, Pittsburgh, PA) by tail nick before injection and at 1, 3, 5, 10, 30, 60, 120, 180, and 240 min post-injection and then stored in an icebox to prevent clotting. The supernatants of collected blood were filled into capillary microtubes (Fisher Scientific) after centrifugation. Mice were euthanized with CO2 inhalation to image organs and collect urine from the bladder 4 h post-injection. Collected urine samples were also placed into capillary microtubes. The fluorescence intensities of the microtubes were measured by NIR imaging along with a set of standard ALS04 or ALS05 samples of known concentrations to analyze the pharmacokinetics. Pharmacokinetic analysis was performed using the 2-compartment model (or biexponential decay) to estimate distribution (t1/2α) and elimination (t1/2β) blood half-life, the volume of distribution, and clearance. Results were presented as a biexponential decay curve.
For all real-time intraoperative imaging, a standardized imaging protocol was employed throughout the procedure using our custom-made imaging system, as previously described. Briefly, imaging utilized a 760-nm excitation source at a fluence rate of 4 mW/cm^2 combined with white light illumination (400 to 650 nm) at 40,000 lux. Camera exposure time was adjusted as needed to accurately capture the biodistribution of the fluorophores. Mice were maintained under general anesthesia using isoflurane or a combination of ketamine and xylazine (Webster Veterinary, Fort Devens, MA), and a midline incision was performed to expose the abdominal cavity. For imaging, a general field of view (FOV) of 5 cm in diameter was used to include the pancreas head, duodenum, liver, and kidneys, while a close-up FOV of 3.3 cm in diameter focused specifically on the pancreas head and duodenum. Following imaging, the mice were euthanized using CO₂ inhalation. Major organs, including the heart, lung, liver, pancreas, spleen, kidney, duodenum, intestine, and muscle, were excised and imaged ex vivo to evaluate fluorophore biodistribution and excretion pathways. The signal-to-background ratio (SBR) was calculated as follows: SBR=IROI/IAuto (2) where IROI denotes the average intensity of an ROI and IAuto represents the intensity of the muscle.

[3] = Photostability under continuous 760-nm irradiation in 5% BSA; assay type: physicochemical; details: 5% BSA solution, NIR imaging conditions
Experimental: To investigate the photostability of ALS04 and ALS05, 10 mM stock solutions were diluted to obtain working solutions, with concentrations of 100, 50, 20, and 10 μM in 5% BSA solution, which were then dispensed into a black 96-well plate. Subsequently, the 200-μl working solutions were exposed to continuous irradiation using a 760-nm laser diode at 4 mW/cm^2, with white light (400 to 650 nm) at 40,000 lux, and imaged for 240 min. The fluorescence (%) was calculated by analyzing the measured values with ImageJ v1.52 (National Institutes of Health, Bethesda, MD, USA) using images captured at each time point. The data, presented as mean ± SD, assessed stability by measuring regions of interest (ROIs) and comparing fluorescence intensity against the initial fluorescence signal.

[4] = Pharmacokinetics after single intravenous injection (2-compartment model); assay type: in vivo, CD-1 mice; details: 25 nmol i.v. in 2.5% PEG400 and 5% BSA in saline; for half-life: 25 nmol
Experimental: as §1

[5] = tested on: SH-SY5Y cells and fibroblast NIH3T3 cells; assay: Cytotoxicity, Cell Counting Kit-8 (CCK-8); assay type: cell-based; details: Homo sapiens, 0 to 20 μM, 24 h, read-out: IC50 (cell viability)
Experimental: Cell viability was assessed using Cell Counting Kit-8 (CCK-8) from Dojindo Molecular Technologies Inc. (Kumamoto, Japan). Briefly, SH-SY5Y and NIH3T3 cells were seeded into 96-well plates at a density of 2,500 cells per well. The cells were then treated with 0 to 20 μM of each fluorophore in growth medium for 24 h, and 10% CCK-8 solutions were added to each well. The plates were incubated at 37 °C for 4 h, and absorbance was measured at 450 nm using a SpectraMax M5 plate reader (Molecular Devices). Cell viability (%) = (Asample − Ab)/(Ac − Ab) × 100, where Asample, Ab, and Ac denote the absorbance reading of sample, blanks, and negative control wells, respectively.

[6] = Solubility in 5% BSA in saline; assay type: physicochemical; details: 5% bovine serum albumin in saline, plasma or biological fluid, thermodynamic from solid
Experimental: MarvinSketch (ver. 23.11) and InstantJChem (ver. 23.17) calculator plug-ins (ChemAxon, Budapest, Hungary) were used to calculate in silico physicochemical property, such as molecular weight (MW), the partition and distribution coefficient (LogP and LogD at pH 7.4), surface molecular charge, hydrophobicity, the hydrogen bond acceptors/donors (HBA/HBD), the acid dissociation constant (pKa), the topological polar surface area (TPSA), and BBB score. The BBB score is determined by 5 key physicochemical descriptors, including the number of aromatic rings, the number of heavy atoms, MWHBN (a parameter derived from MW and the number of HBA/HBD), TPSA, and pKa. […] The absorbance and fluorescence emission spectra of ALS04 and ALS05 at varying concentrations were measured in dimethyl sulfoxide (DMSO) using HR2000 absorbance spectrometers (200 to 1,100 nm) and USB2000FL fluorescence spectrometers (350 to 1,000 nm) from Ocean Optics (Dunedin, FL). Fluorescence emission spectra were collected under NIR excitation using a 760-nm laser pointer (Opcom Inc., Xiamen, China). […] The fluorescence emission spectrum was integrated and plotted as a function of absorbance at 755 nm, and a linear fit was applied to determine the slope between fluorescence intensity and absorbance. […] Following this, the solution was centrifuged at 1,500g for 10 min, and the absorbance of the supernatant was measured. […]

SOD1^G93A mice = assay: Biodistribution and targeting in ALS mouse model by NIR imaging; assay type: in vivo; details: 25 nmol retro-orbital, 4 h post-injection
Experimental: For biodistribution and targeting studies, 12-week-old B6SJLF1/J (SOD1^G93A)1Gur male mice (25 to 30 g) were purchased from the Charles River Laboratories (Wilmington, MA). Animals were housed in an AAALAC-certified facility [Massachusetts General Hospital (MGH) #D16-00361], and all animal studies were performed in accordance with the Public Health Service Policy on Humane Care of Laboratory Animals and approved by the MGH Institutional Animal Care and Use Committee (IACUC) (#N2016000136). […] Each mouse was set on the wire lid of a typical housing cage, which was then turned on its side. It was timed how long it took after the test started for the mouse to stand with at least 2 limbs on the lid. The longest latency was noted after the animals were given 3 chances to stand for a maximum of 3 min per trial. The hemizygous SOD1^G93A mice were selected via genotyping polymerase chain reaction (PCR) assay. Mice were fed chlorophyll-free mouse chow (VWR International. Radnor, PA) at least 5 d prior to imaging to minimize autofluorescence. […]
For all real-time intraoperative imaging, a standardized imaging protocol was employed throughout the procedure using our custom-made imaging system, as previously described. […] The signal-to-background ratio (SBR) was calculated as follows: SBR=IROI/IAuto (2) where IROI denotes the average intensity of an ROI and IAuto represents the intensity of the muscle.

SH-SY5Y cells [7] = assay: Cellular uptake inhibition (BSP pretreatment or 4 °C); assay type: cell-based, human
Experimental: SH-SY5Y cells were seeded on a 24-well plate (Corning Costar, no. 3524) and incubated at 37 °C for 48 h. To determine the role of membrane transporter in ALS04 retention, SH-SY5Y cells were pretreated with 250 μM sulfobromophthalein disodium (BSP; MedChemExpress, HY-D0217) at 37 °C for 20 min. Cells were then incubated with 1 μM of ALS04 and NucBlue (Invitrogen, Hoechst 33342, no. R37605) for 20 min at 37 °C. To evaluate the contribution of diffusion across the plasma membrane, cells were also incubated at 4 °C for 30 min, followed by incubation with 1 μM ALS04 at 4 °C for 20 min. After washing, the cells were imaged using BioTek Cytation 5. The fluorescence intensity of each cell was determined using ImageJ.

[8] = Optical properties (absorbance, fluorescence, quantum yield) in DMSO; assay type: physicochemical
Experimental: MarvinSketch (ver. 23.11) and InstantJChem (ver. 23.17) calculator plug-ins (ChemAxon, Budapest, Hungary) were used to calculate in silico physicochemical property, such as molecular weight (MW), the partition and distribution coefficient (LogP and LogD at pH 7.4), surface molecular charge, hydrophobicity, the hydrogen bond acceptors/donors (HBA/HBD), the acid dissociation constant (pKa), the topological polar surface area (TPSA), and BBB score. The BBB score is determined by 5 key physicochemical descriptors, including the number of aromatic rings, the number of heavy atoms, MWHBN (a parameter derived from MW and the number of HBA/HBD), TPSA, and pKa. The final score is computed using stepwise methods for descriptors with discrete values and polynomial weight functions for descriptors with continuous ranges (ChemAxon). The absorbance and fluorescence emission spectra of ALS04 and ALS05 at varying concentrations were measured in dimethyl sulfoxide (DMSO) using HR2000 absorbance spectrometers (200 to 1,100 nm) and USB2000FL fluorescence spectrometers (350 to 1,000 nm) from Ocean Optics (Dunedin, FL). Fluorescence emission spectra were collected under NIR excitation using a 760-nm laser pointer (Opcom Inc., Xiamen, China). […] The fluorescence emission spectrum was integrated and plotted as a function of absorbance at 755 nm, and a linear fit was applied to determine the slope between fluorescence intensity and absorbance. […] A small, accurately weighed amount of each fluorophore was added to a minimal volume of solvents, and the saturated solution was then vortexed and sonicated for 5 min to ensure complete dissolution of the solids. Following this, the solution was centrifuged at 1,500g for 10 min, and the absorbance of the supernatant was measured. The solubility (g/l) was calculated by multiplying the maximum absorbance-derived concentration by the MW of each fluorophore.

[9] = in DMSO, cited from earlier work

SBR in duodenum or intestine and kidneys (CD-1 mice; 25 nmol): relatively high SBR
Signal in the bladder (CD-1 mice; 25 nmol): Little signal
Clearance route (CD-1 mice; 25 nmol, intravital NIR imaging): both renal and hepatic clearance
Signals in brown adipose tissue (BAT) and pituitary gland (PG) compared to ALS05 (CD-1 mice; 25 nmol, ****P ≤ 0.0001 BAT, *P = 0.0324 PG): highly selective accumulated signals
Ex vivo signal in the gastrointestinal tract (CD-1 mice; resected organs): high signal
Ex vivo signal in the kidney compared to ALS05 (CD-1 mice; resected organs): noticeably higher signal
Photostability (retained fluorescence) at 10 μM ([3]; 10 μM, 240 min): 60%
Photostability (retained fluorescence) ([3]; up to 240 min): over 90%
AUC [4]: 775.6 nmol·min/mL
half-life ([4]; CD-1, mouse, plasma, iv, read-out: t1/2α (distribution blood half-life)): 1.82 min
half-life ([4]; CD-1, mouse, plasma, iv, read-out: t1/2β (elimination blood half-life)): 79.9 min
clearance ([4]; CD-1, mouse, plasma, iv, read-out: Cl (clearance)): 0.067 mL/min
Vd ([4]; CD-1, mouse, plasma, iv, read-out: Vd (volume of distribution)): 0.00296 L
solubility at 5 min [6]: 2530 µg/mL
Ext. coeff. (molar absorptivity) [8]: 169,600 M^-1cm^-1
Max. Abs (excitation maximum) [8]: 751 nm
Max. Fl (emission maximum) [8]: 774 nm
QY (quantum yield) ([8]; ICG as reference): 6.0%
SMILES: CN1/C(=C/C2=CC3=C/C(=C/c4sc5ccccc5[n+]4C)CCC3CC2)Sc2ccccc21 (stereo not shown) [ALS04]
Colocalization with mitochondria after MPP+ treatment (SH-SY5Y cells [1]): dose-dependent reduction
Colocalization with lysosomes (colocalizing pixels) (SH-SY5Y cells [2]; LysoTracker): 8.5%
Colocalization with mitochondria (colocalizing pixels) (SH-SY5Y cells [2]; MitoTracker): 71%
IC50 [5]: ~1.3 µM
Uptake in BAT of SOD1^G93A mice compared to sham mice (SOD1^G93A mice; 3-month-old asymptomatic mice, ****P ≤ 0.0001): significantly reduced
Signals in ventral temporal (VT) lobe and third ventricle (3v) of ALS mice compared to sham mice (SOD1^G93A mice; **P ≤ 0.01): significantly higher
Fluorescence signal (cellular uptake) after OATP inhibitor BSP (SH-SY5Y cells [7]; 250 μM BSP pretreatment 20 min, then 1 μM for 20 min, ****P ≤ 0.0001): significant reduction
Cellular uptake at 4 °C (SH-SY5Y cells [7]; cells at 4 °C 30 min, then 1 μM at 4 °C for 20 min): significantly reduced

SMILES: CC1(C)C(/C=C/C=C/C=C/C=C2\N(CCCCS(=O)(=O)O)c3ccc4ccccc4c3C2(C)C)=[N+](CCCCS(=O)(=O)[O-])c2ccc3ccccc3c21 [ICG, indocyanine green]
QY (quantum yield) ([9]; reference standard): 13%
Molar absorptivity [9]: 232,000 M^−1 cm^−1

From paper PMC11912748, “Image-Guided Monitoring of Mitochondria and Blood–Brain Barrier Dysfunction in Amyotrophic Lateral Sclerosis Mice” (Biomaterials Research, 2025)
